Here are results for ten molecules from PubChem BioAssay (NCI).

Some test systems named below: CAKI-1 renal; MALME-3M melanoma; MOLT-4 leukemia; NCI-H226 lung; NCI-H522 lung; OVCAR-4 ovarian; SK-OV-3 ovarian; TK-10 renal; UACC-257 melanoma.
Experiment in all cases: NCI-60 cell line screen, 48 h

Where “and” joins values, the source holds several entries; their conditions need not be identical. Equal values may be shown once.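 Protocol summary: plate cells (96-well), add compound at 5 concentrations, incubate 48 h, interpolate endpoints linearly. GI50 marks 50% less growth. TGI denotes the concentration required for complete inhibition of growth.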

`CCCCC(=O)N/N=C/c1c(O)ccc2ccccc12`: the TGI in the test with CAKI-1 renal is 2.26 µM; in the test with MALME-3M melanoma, 20.3 µM; with NCI-H226 lung, above 70.4 µM; with NCI-H522 lung, 10.2 µM; in the test on OVCAR-4 ovarian, above 33.2 µM; with SK-OV-3 ovarian, above 100 µM. Also, the figures for the TGI with TK-10 renal and in the test on UACC-257 melanoma were above 24.3 µM and above 24.6 µM, respectively. For the same molecule, the GI50 was 3.06 µM with MALME-3M melanoma; 0.349 µM with MOLT-4 leukemia; 13.7 µM in the test on NCI-H226 lung; 1.77 µM in the test on NCI-H522 lung; 1.47 µM with OVCAR-4 ovarian; 3.04 µM in the test with SK-OV-3 ovarian. Further, the GI50 was 1.82 µM in the test with TK-10 renal and 3 µM with UACC-257 melanoma.
In the case of `Oc1cccc(/C=N/Nc2nnc(N/N=C/c3cccc(O)c3)c3ccccc23)c1`, the TGI with CAKI-1 renal stood at 83.3 µM; in the test with MALME-3M melanoma, 57.3 µM; in the test with MOLT-4 leukemia it was 6.43 µM; in the test with NCI-H226 lung it was 30.7 µM; with NCI-H522 lung, 53.1 µM; in the test on OVCAR-4 ovarian, 82.6 µM. Also, the TGI is above 100 µM with SK-OV-3 ovarian, 50.9 µM in the test with TK-10 renal and above 100 µM in the test with UACC-257 melanoma.
As for `NC(N)=Nc1nc2ccc([N+](=O)[O-])cc2[nH]1`, the TGI in the test with CAKI-1 renal, with MALME-3M melanoma, in the test on MOLT-4 leukemia, in the test with NCI-H226 lung, with NCI-H522 lung and with OVCAR-4 ovarian was above 100 µM each time. Moreover, the TGI in the test with SK-OV-3 ovarian, in the test with TK-10 renal and in the test with UACC-257 melanoma was above 100 µM throughout.
`C/C(=N\NC(=S)N1CC2CCC(CC2)C1)c1cccc(C)n1`: the TGI in the test on CAKI-1 renal is 14.2 µM; with MALME-3M melanoma, 17.8 µM; in the test on MOLT-4 leukemia it was 0.00764 µM; in the test with NCI-H226 lung, 7.73 µM; with NCI-H522 lung, 0.343 µM and 1.5 µM; in the test on OVCAR-4 ovarian, 16.1 µM. Further, the TGI came to 7.47 µM in the test on SK-OV-3 ovarian, 16.1 µM in the test on TK-10 renal and 9.8 µM in the test with UACC-257 melanoma. Moreover, the GI50 in the test with MALME-3M melanoma is 0.605 µM; in the test on MOLT-4 leukemia, below 0.0001 µM; in the test with NCI-H522 lung it was 0.232 µM; with OVCAR-4 ovarian, 0.000172 µM; with TK-10 renal, 0.786 µM; in the test with UACC-257 melanoma, 0.68 µM.
Take `Cc1[nH]c(-c2nc3ccccc3[nH]2)c(C)c1C(=O)NC(C)C1CCCCC1` (stereo not drawn): the GI50 is 10.4 µM with CAKI-1 renal; 5.68 µM with MALME-3M melanoma; 4.95 µM in the test on MOLT-4 leukemia; 13.9 µM with NCI-H226 lung; 13.2 µM in the test on NCI-H522 lung; 12.4 µM in the test with OVCAR-4 ovarian. Further, the results for the GI50 in the test on SK-OV-3 ovarian, in the test with TK-10 renal and in the test with UACC-257 melanoma were 15.3 µM, 21.5 µM and 13.2 µM, respectively. Besides, the TGI is 22.2 µM in the test on CAKI-1 renal; 22.5 µM in the test with MALME-3M melanoma; 28.1 µM in the test on MOLT-4 leukemia; 37.3 µM with NCI-H226 lung; 44 µM with NCI-H522 lung; 26.8 µM in the test on OVCAR-4 ovarian. In addition, the TGI in the test with SK-OV-3 ovarian is 34.4 µM; in the test with TK-10 renal it was 41.6 µM; with UACC-257 melanoma it was 33.3 µM.
Turning to `O=[n+]1c2ccccc2n([O-])c2cc(Cl)ccc21`, the GI50 in the test on CAKI-1 renal is 3.28 µM; with MALME-3M melanoma, 7.76 µM; in the test with MOLT-4 leukemia, 0.385 µM; with NCI-H226 lung it was 7.32 µM; in the test on NCI-H522 lung, 1.47 µM; in the test with OVCAR-4 ovarian, 2.67 µM. Further, the GI50 in the test with SK-OV-3 ovarian was 7.12 µM; with TK-10 renal it was 4.96 µM; with UACC-257 melanoma it was 5.49 µM. In addition, the TGI in the test with CAKI-1 renal was determined as 13.1 µM; with MALME-3M melanoma, 20.8 µM; in the test with MOLT-4 leukemia, 2.03 µM; with NCI-H226 lung, 25.6 µM; in the test with NCI-H522 lung, 3.11 µM; with OVCAR-4 ovarian, 26.6 µM. Besides, the TGI with SK-OV-3 ovarian was 20.4 µM; with TK-10 renal, 18 µM; in the test on UACC-257 melanoma, 18.1 µM.
As for `COc1cc(N2CCN(C(C)C)CC2)ccc1Nc1nc(Nc2cccc(F)c2C(=O)O)c2cc[nH]c2n1`, the GI50 in the test with CAKI-1 renal, with MALME-3M melanoma, in the test on MOLT-4 leukemia, in the test with NCI-H226 lung, in the test with NCI-H522 lung and in the test with OVCAR-4 ovarian was above 25 µM in each case. Besides, the GI50 with SK-OV-3 ovarian, with TK-10 renal and with UACC-257 melanoma was above 25 µM each time. The TGI in the test on CAKI-1 renal, in the test on MALME-3M melanoma, in the test on MOLT-4 leukemia, in the test on NCI-H226 lung, in the test on NCI-H522 lung and in the test with OVCAR-4 ovarian was above 25 µM in each case. Further, the TGI in the test with SK-OV-3 ovarian, in the test on TK-10 renal and in the test on UACC-257 melanoma was above 25 µM throughout.
With `CCN(CC)CCN(Cc1ccc(F)cc1)c1ccc(CO)c(Cl)c1`, the GI50 is 1.85 µM in the test on CAKI-1 renal; 19.5 µM in the test with MALME-3M melanoma; 40.1 µM in the test on MOLT-4 leukemia; 0.235 µM in the test with NCI-H226 lung; 27.9 µM with NCI-H522 lung; 4.6 µM in the test on OVCAR-4 ovarian. Further, the GI50 in the test on SK-OV-3 ovarian is 2.96 µM; in the test on TK-10 renal, 4.86 µM; with UACC-257 melanoma, 12 µM. In addition, the TGI in the test with CAKI-1 renal was 17.3 µM; with MALME-3M melanoma it was 37.3 µM; in the test on MOLT-4 leukemia, above 100 µM; in the test on NCI-H226 lung, 0.713 µM; in the test with NCI-H522 lung, 68.2 µM; in the test with OVCAR-4 ovarian, 35.2 µM. For the same molecule, the TGI in the test on SK-OV-3 ovarian amounted to 13.6 µM; with TK-10 renal it was 22.2 µM; with UACC-257 melanoma, 27.7 µM.
As to `Cc1cccc(N2C(=O)C(=O)C(c3nc4ccccc4s3)/C(=N/NC(=S)NN)C2=O)c1C` (stereo not drawn), the TGI in the test on CAKI-1 renal, in the test with MALME-3M melanoma, in the test with MOLT-4 leukemia, in the test on NCI-H226 lung, in the test on NCI-H522 lung and in the test with OVCAR-4 ovarian was above 100 µM each time. Besides, the TGI in the test on SK-OV-3 ovarian, with TK-10 renal and with UACC-257 melanoma was above 100 µM in each case.
As for `COc1ccc(/C=C2\CN(Cc3cn(CCNc4ccnc5cc(Cl)ccc45)nn3)C/C(=C\c3ccc(OC)c(OC)c3)C2=O)cc1OC`, the GI50 in the test with CAKI-1 renal is 7.22 µM; with MALME-3M melanoma, 2.78 µM; in the test with MOLT-4 leukemia, 3.5 µM; with NCI-H226 lung, 4.04 µM; with NCI-H522 lung, 2.24 µM; with OVCAR-4 ovarian it was 4.07 µM. Besides, the GI50 with SK-OV-3 ovarian was 4.66 µM; in the test with TK-10 renal it was 4.96 µM; with UACC-257 melanoma, 4.8 µM. The TGI in the test with CAKI-1 renal is above 100 µM; with MALME-3M melanoma it was 6.19 µM; in the test on MOLT-4 leukemia it was 40.2 µM; in the test on NCI-H226 lung it was 21 µM; in the test on NCI-H522 lung, 6.38 µM; in the test with OVCAR-4 ovarian, above 100 µM. In addition, the TGI was determined as 24.1 µM in the test with SK-OV-3 ovarian, 22 µM in the test on TK-10 renal and 23.1 µM in the test with UACC-257 melanoma.
